Measured values as given in US7666985B2, “HLA-A24-restricted cancer antigen peptides” (International Institute of Cancer Immunology, Inc., priority 2002, dated 2010).
Entries after “also recorded” stand apart in the source; their conditions may differ. Read-outs that look alike come from different tables or passages of the source. Square brackets hold non-standard residues; d marks the D form. Ends that are not written are not given here. Abu = CC[C@H](N)C(=O)O

Assays:
[1] = tested on: Jurkat-A2402/K^b cells pulsed with the peptide; experiment: CTL-inducing activity (immunogenicity) in HLA-A2402/K^b transgenic mouse, 51Cr release assay; assay type: in vivo; conditions: for immunogenicity (activity to induce CTLs; cytotoxic activity, % Specific Lysis): HLA-A2402/K^b transgenic mice (three per peptide) immunized s.c. with peptide + helper peptide in IFA, splenocytes stimulated in vitro 6 days, E/T ratio of 80; for immunogenicity (activity to induce CTLs; cytotoxic activity, % Specific Lysis) / induction of specific CTLs (cytotoxic activity, % Specific Lysis): peptide-pulsed vs non-pulsed Jurkat-A2402/K^b targets; for induction of specific CTLs (cytotoxic activity, % Specific Lysis): Reference 9: transgenic mouse (04-1 line) immunized with known HLA-A24-restricted cancer antigen peptide + helper peptide in IFA
Protocol: Specifically, HER-2/neu780-788 and helper peptide were adjusted to 40 mg/ml and 20 mg/ml, respectively, in DMSO and diluted with a physiological saline to 2 mg/ml and 1 mg/ml, respectively. They were mixed with an equal amount of Freund's incomplete adjuvant (Wako Pure Chemical Industries, Ltd.) using a glass syringe to prepare a water-in-oil emulsion. The resultant preparation (200 μl) was injected into a transgenic mouse (04-1 line) subcutaneously in the base of the tail for immunization. Seven days after the initiation of experiment, the spleen was removed and grounded on the frosted part of glass slide, and splenocytes were recovered and prepared. A portion of the splenocytes undergone hemolysis treatment with an ACK buffer (0.15 M NH4Cl, 10 mM KHCO3, 0.1 mM EDTA, pH 7.2-7.4) was exposed to X ray radiation (2,000 rad), pulsed with the above-mentioned peptide (100 μg/ml) for 1 hour, and seeded into a 24-well plate at 0.7×10^6/well. Non-radiated, non-peptide-pulsed splenocytes (7×10^6/well) were added together and stimulated again at 37° C. (final concentration of peptide, 1 μg/ml). In vitro stimulation was carried out for 6 days in […] of a culture solution (CTM culture solution) containing 10% FCS, 10 mM HEPES, 20 mM L-glutamine, 1 mM sodium pyruvate, 1 mM MEM nonessential amino acid, 1% MEM vitamin and 55 μM 2-mercaptoethanol in RPMI 1640 medium.
On the other hand, Jurkat-A2402/K^b cells prepared in Reference 8 were labeled with ^51Cr (3.7 MBq/10^6 cells) and pulsed with the peptide above at 100 μg/ml for one hour. The labeling was carried out over 2 hours, and 1 hour after initiation of labeling, peptide was added to make the final concentration 100 μg/ml. Cells that were not pulsed with peptide were prepared as control target cells.
CTL-inducing activity was determined by ^51Cr release assay (J. Immunol., 159:4753, 1997), wherein the previously prepared transgenic mouse splenocyte preparation was added to said Jurkat-A2402/K^b cells as the target cells.
Immunogenicity of each antigen peptide was evaluated using the HLA-A2402/K^b transgenic mouse as constructed in aforementioned References. For the evaluation of each peptide for its immunogenicity, three transgenic mice were immunized with one peptide.
Specifically, each antigen peptide and the helper peptide were adjusted to 40 mg/ml and 20 mg/ml, respectively, in DMSO, and diluted with a physiological saline to 2 mg/ml and 1 mg/ml, respectively. They were then mixed with an equal amount of Freund's incomplete adjuvant (IFA) using a glass syringe to prepare a water-in-oil emulsion. The resultant emulsion (200 μl) was injected into the HLA-A2402/K^b transgenic mouse subcutaneously in the base of the tail for immunization. Seven days after the initiation of experiment, the spleen was removed and grounded on the frosted part of glass slide, and splenocytes were recovered and prepared. A portion of the splenocytes undergone hemolysis treatment with an ACK buffer (0.15 M NH4Cl, 10 mM KHCO3, 0.1 mM EDTA, pH 7.2-7.4) was exposed to X ray radiation (2,000 rad), then pulsed with the above-mentioned peptide (100 μg/ml) for 1 hour, and seeded into a 24-well plate at 7×10^6/well. Simultaneously, non-radiated, non-peptide-pulsed splenocytes (7×10^5/well) were added together and stimulated in vitro at 37° C. for 6 days. The in vitro stimulation was carried out in RPMI1640 medium supplemented with 10% FCS, 10 mM HEPES, 20 mM L-glutamine, 1 mM sodium pyruvate, 1 mM MEM nonessential amino acids, 1% MEM vitamin and 55 μM 2-mercaptoethanol.
Then, the test for cytotoxic activity was conducted according to the conventional manner. Jurkat-A2402/K^b cells (Reference 8), and Jurkat-A2402/K^b cells pulsed with the peptide were used as target cells (T). These cells were labeled with ^51Cr (3.7 MBq/10^6 cells) and pulsed with the peptide at 100 μg/ml for one hour (The labeling was carried out over 2 hours, and 1 hour after the initiation of labeling, the peptide was added).

[2] = tested on: Jurkat-A2402/K^b cells pulsed with the natural or non-substituted peptide; conditions: for cross-reactivity of effector cells induced by the substituted peptide to the non-substituted peptide (cytotoxic activity): mice immunized with peptide M or N, targets pulsed with peptide M or N, with peptide H, or without any peptide
Protocol: Cross-reactivity of the effector cells induced by the altered peptide to the natural peptide was tested. Effector cells induced by immunizing the mice with the altered form: peptide H (E) and target cells of the Jurkat-A2402/K^b cells pulsed with the natural form: peptide C (T) were combined and reacted at an E/T ratio of 80, and the cytotoxic activity was determined by ^51Cr release assay.
Cross-reactivity of the effector cells induced by the substituted peptide to the non-substituted peptide was tested. To effector cells induced by immunizing the mice with peptide M or N (E), target cells of the Jurkat-A2402/K^b cells pulsed with peptide M or N, with peptide H, or without any peptide (T) were reacted, and the cytotoxic activities of the effector cells were determined by ^51Cr release assay.

RERF-LC-AI cells = conditions: PBMC effector cells stimulated with peptide, targets RERF-LC-AI (WT1+, HLA-A24+) versus WT1+/HLA-A2402- and WT1-/HLA-A24+ lung cancer lines (LK87, 11-18)
Protocol: (§1) Peripheral blood mononuclear cells were separated from healthy donors positive for HLA-A2402, and were placed into wells of a 24-well plate at 4×10^6 cells/well. To the wells, the natural peptide of SEQ ID NO: 7 or the altered peptide of SEQ ID NO: 3 was added at a concentration of 10 μM, and the mixture was incubated for a week in a culture medium comprising 45% RPMI1640, 45% AIV, 10% inactivated human AB serum, 1× nonessential amino acids, 25 ng/ml 2-mercaptoethanol, […] streptomycin, and 50 U/ml penicillin. After the incubation, the cells were adjusted to 2×10^6 cells/well, which were used as responder cells hereafter. On the other hand, peripheral blood mononuclear cells separated from the same healthy donors were incubated together with 10 μM of either of these peptides for 4 hours to accomplish the pulsing with peptide, and then radiated at 30 Gy. The cells were adjusted to 4×10^6 cells/well, which were used as stimulator cells hereafter.
(§2) The responder cells and the stimulator cells thus prepared were mixed together, and the mixture was added with IL-2 at 30 U/ml, and incubated. A similar stimulation of the responder cells with the stimulator cells was conducted three times with an interval of a week. The cytotoxic activity in those cells thus obtained was determined by ^51Cr release assay wherein the cytotoxic activity was determined by reacting the C1R-A*2402 cells positive for an HLA-A24 (Int. J. Cancer, 81, p 387, 1999) labeled with ^51Cr that were pulsed with the natural peptide of SEQ ID NO: 7 as target cells (T), and the cells stimulated with the natural peptide of SEQ ID NO: 7 or the altered peptide of SEQ ID NO: 3 as described above (effector cells)(E) at an E/T ratio of 10, 20 or 40. […] Further, a lung cancer cell line positive for WT1 and positive for an HLA-A24, RERF-LC-AI cells; a lung cancer cell line positive for WT1 and negative for an HLA-A2402, 11-18 cells; or a lung cancer cell line negative for WT1 and positive for an HLA-A24, 11-18 cells were used as target cells to determine the cytotoxic activities of the effector cells described above in a similar manner by ^51Cr release assay.

[3] = tested on: C1R-A*2402 cells pulsed with the natural peptide of SEQ ID NO: 7; conditions: PBMC from HLA-A2402 positive healthy donors stimulated in vitro with 10 μM peptide; E/T ratio of 10, 20 or 40
Protocol: as §1, §2

## AYPGCNKRYF [peptide E, natural peptide, positions 326 to 335 of human WT1]
[1]
  immunogenicity (activity to induce CTLs; cytotoxic activity, % Specific Lysis): no specific CTL was induced

## RWPSCQKKF [peptide C, natural peptide, positions 417 to 425 of human WT1]
[1]
  immunogenicity (activity to induce CTLs; cytotoxic activity, % Specific Lysis): have no immunogenicity; also recorded: no specific CTL was induced

## NYMNLGATL [peptide J, altered peptide L, position 2 altered into tyrosine]
[1]
  immunogenicity (activity to induce CTLs; cytotoxic activity, % Specific Lysis): have a high immunogenicity; also recorded: specific CTLs were induced

## AYLPAVPSL [peptide I, altered peptide K, position 2 altered into tyrosine]
[1]
  immunogenicity (activity to induce CTLs; cytotoxic activity, % Specific Lysis): have a high immunogenicity; also recorded: specific CTLs were induced

## Arg-Tyr-Pro-Ser-Abu-Gln-Lys-Lys-Phe (RYPS[Abu]QKKF) [peptide O, peptide H with cysteine at position 5 substituted with α-aminobutyric acid]
[1]; Example 5: HLA-A24 expressing transgenic mouse immunized with peptide, effector and target cells mixed at various E/T ratios
  immunogenicity (cytotoxic activity, % Specific Lysis): immunogenicity equivalent to the non-substituted peptide, peptide H; also recorded: specific CTLs were induced

## CEA268-277: known HLA-A24-restricted cancer antigen peptide derived from CEA [reference compound]
[1]
  induction of specific CTLs (cytotoxic activity, % Specific Lysis): induction of specific CTLs by stimulation with these known HLA-A24-resticted cancer antigen peptides was observed; also recorded: specific CTLs were induced

## QYRIHTHGVF [peptide D, natural peptide, positions 285 to 294 of human WT1]
[1]
  immunogenicity (activity to induce CTLs; cytotoxic activity, % Specific Lysis): no specific CTL was induced

## CEA652-660: known HLA-A24-restricted cancer antigen peptide derived from CEA [reference compound]
[1]
  induction of specific CTLs (cytotoxic activity, % Specific Lysis): induction of specific CTLs by stimulation with these known HLA-A24-resticted cancer antigen peptides was observed; also recorded: specific CTLs were induced

## MAGE-3195-203: known HLA-A24-restricted cancer antigen peptide derived from MAGE-3 [reference compound]
[1]
  induction of specific CTLs (cytotoxic activity, % Specific Lysis): induction of specific CTLs by stimulation with these known HLA-A24-resticted cancer antigen peptides was observed; also recorded: specific CTLs were induced

## ALLPAVPSL [peptide K, natural peptide, positions 10 to 18 of human WT1]
[1]
  immunogenicity (activity to induce CTLs; cytotoxic activity, % Specific Lysis): have no immunogenicity; also recorded: no specific CTL was induced

## RYPSAQKKF [peptide N]
[2]
  cross-reactivity of effector cells induced by the substituted peptide to the non-substituted peptide (cytotoxic activity): exhibited a cytotoxic activity against all of the cells pulsed with the substituted peptides

## RVPGVAPTL [peptide B]
RERF-LC-AI cells
  cytotoxic activity of effector cells on lung cancer cell lines: CTLs were induced
RERF-LC-AI cells; listed as SEQ ID NO: 7
  cytotoxic activity of effector cells on lung cancer cell lines: specifically injured only the RERF-LC-AI cells
[3]
  CTL-inducing activity (cytotoxic activity): CTLs were induced

## NQMNLGATL [peptide L, natural peptide, positions 239 to 247 of human WT1]
[1]
  immunogenicity (activity to induce CTLs; cytotoxic activity, % Specific Lysis): have no immunogenicity; also recorded: no specific CTL was induced

## RYPSCQKKF [peptide H]
[2]; mice immunized with peptide H, targets pulsed with peptide H or natural peptide C, E/T ratio of 80
  cross-reactivity of effector cells induced by the altered peptide to the natural peptide (cytotoxic activity): exhibited a cytotoxic activity against both cells pulsed with the altered and natural forms

## RYPGVAPTL [peptide G]
RERF-LC-AI cells
  cytotoxic activity of effector cells on lung cancer cell lines: CTLs were induced
[3]
  CTL-inducing activity (cytotoxic activity): CTLs were induced

## HER-2/neu780-788: HLA-A24-restriced peptide derived from human tumor antigen HER-2/neu (PYVSRLLGI) [reference compound]
[1]
  induction of specific CTLs (cytotoxic activity, % Specific Lysis): induction of specific CTLs by stimulation with HER-2/neu780-788 was observed
[1]; listed as HER2/neu780-788
  induction of specific CTLs (cytotoxic activity, % Specific Lysis): specific CTLs were induced

## RYFPNAPYL [peptide F]
[1]
  immunogenicity (activity to induce CTLs; cytotoxic activity, % Specific Lysis): have a high immunogenicity; also recorded: specific CTLs were induced

## RYPSSQKKF [peptide M]
[2]
  cross-reactivity of effector cells induced by the substituted peptide to the non-substituted peptide (cytotoxic activity): exhibited a cytotoxic activity against all of the cells pulsed with the substituted peptides
